{"source": "paper PMC8329300", "about": "“X-ray crystallography reveals molecular recognition mechanism for sugar binding in a melibiose transporter MelB” (Communications Biology, 2021)", "key": {"[1]": {"biological_target": "T1, D59C MelBSt (Salmonella typhimurium, UniProt P30878, D59C)", "T1 construct": "Cys scanning mutagenesis for the full-length MelBSt; His10 (C); made in house; host or cells: E. coli DW2", "T1 sequence (P30878 whole entry D59C)": "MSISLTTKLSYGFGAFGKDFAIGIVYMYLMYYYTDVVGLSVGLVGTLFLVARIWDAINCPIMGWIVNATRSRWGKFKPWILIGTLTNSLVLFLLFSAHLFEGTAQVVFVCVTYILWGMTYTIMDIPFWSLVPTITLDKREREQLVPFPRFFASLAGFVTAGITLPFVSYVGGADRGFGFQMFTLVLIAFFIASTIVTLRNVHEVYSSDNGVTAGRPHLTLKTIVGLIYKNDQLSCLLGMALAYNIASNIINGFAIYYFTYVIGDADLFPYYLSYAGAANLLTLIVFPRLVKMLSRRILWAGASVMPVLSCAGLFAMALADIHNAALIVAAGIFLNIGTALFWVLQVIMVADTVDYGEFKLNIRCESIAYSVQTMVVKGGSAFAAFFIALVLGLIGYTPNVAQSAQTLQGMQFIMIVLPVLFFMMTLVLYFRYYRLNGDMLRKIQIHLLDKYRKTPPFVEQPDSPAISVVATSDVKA", "assay": "Melibiose fermentation on MacConkey agar (DW2 transformants)", "format": "cell-based", "settings": "30 mM melibiose, 37 °C", "description": "(§1) Fig. 1 Functional characterizations. a [^3H] Melibiose transport time course with intact cells. E. coli DW2 strain (melB^−, lacZ^−Y^−) expressed with the WT, D59C, or D59A MelBSt mutants were subjected to [^3H]melibiose active transport assay at 0.4 mM and 10 mCi/mmol in the presence of 20 mM or 100 mM NaCl or LiCl by a fast filtration method. Inset, melibiose fermentation assay. Transformants with DW2 strain were plated on MacConkey agar plates containing 30 mM melibiose as the sole carbohydrate source and pH sensor neutral red, and incubated at 37 °C for 16–18 h before imaging. Number of tests = 3, from different batch of cells or duplicate measurements from same batch of sample. b Ligand binding by Trp→dansyl galactoside (D^2G) FRET assay. Purified proteins at 1 μM concentration in 20 mM Tris-HCl, pH 7.5, 100 mM CholCl, 10% glycerol, and 0.03% UDM were subjected to steady-state fluorescence measurements as described in Methods. On the time-trace, 1.8 μL of 1 mM D^2G at 10 μM was added into 180 μL of protein solutions at 1-min point, followed by supplying 10 μL of 5 mM DDMB or 5 mM α-NPG to displace the bound D^2G. For testing Na^+ or Li^+ binding, they are added into the solution before displacement with the second sugar. The structure of DDMB or α-NPG is shown in a chair form, and the carbon positions are labeled. Glycosidic bonds are indicated by arrows. […]"}, "[2]": {"biological_target": "T2, D59A MelBSt (Salmonella typhimurium, UniProt P30878, D59A)", "T2 construct": "Cys scanning mutagenesis for the full-length MelBSt; His10 (C); made in house; host or cells: E. coli DW2", "T2 sequence (P30878 whole entry D59A)": "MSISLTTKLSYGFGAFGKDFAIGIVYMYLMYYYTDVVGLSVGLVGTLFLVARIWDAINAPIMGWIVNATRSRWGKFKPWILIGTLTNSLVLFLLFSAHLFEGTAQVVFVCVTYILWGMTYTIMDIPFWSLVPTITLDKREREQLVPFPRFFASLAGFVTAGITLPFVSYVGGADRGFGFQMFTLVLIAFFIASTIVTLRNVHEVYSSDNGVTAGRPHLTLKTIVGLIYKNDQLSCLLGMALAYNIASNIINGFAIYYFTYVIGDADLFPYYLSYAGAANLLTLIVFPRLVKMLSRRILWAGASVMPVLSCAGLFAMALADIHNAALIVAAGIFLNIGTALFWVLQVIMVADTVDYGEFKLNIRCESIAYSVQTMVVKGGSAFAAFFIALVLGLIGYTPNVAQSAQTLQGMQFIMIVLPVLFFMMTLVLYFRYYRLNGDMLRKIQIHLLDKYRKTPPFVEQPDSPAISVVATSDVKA", "assay": "Trp→dansyl galactoside (D2G) FRET time trace (D59A)", "format": "binding", "settings": "no Na+ or Li+ stimulation", "description": "as §1, with “Methods.” for “Methods. On the time-trace, 1.8 μL of 1 mM D^2G at 10 μM was added into 180 μL of protein solutions at 1-min point, followed by supplying 10 μL of 5 mM DDMB or 5 mM α-NPG to displace the bound D^2G. For testing Na^+ or Li^+ binding, they are added into the solution before displacement with the second sugar. The structure of DDMB or α-NPG is shown in a chair form, and the carbon positions are labeled. Glycosidic bonds are indicated by arrows.”\nSteady-state fluorescence measurements were performed with an AMINCO-Bowman series 2 spectrometer with purified MelBSt at 1 μM in 20 mM Tris-HCl, pH 7.5, 100 mM CholCl, 10% glycerol, 0.03% UDM. Using an excitation wavelength at 290 nm, the emission intensity was recorded at 490 nm. […]"}}, "data": [{"smiles": "OC[C@H]1O[C@H](OCC2O[C@@H](O)[C@H](O)[C@@H](O)[C@@H]2O)[C@H](O)[C@@H](O)[C@H]1O", "note": "(some centres unmarked) [Melibiose]", "values": [{"measurement": "melibiose fermentation (colony colour)", "setting": "[1]", "value": "normal melibiose fermentation with red colonies"}]}, {"smiles": "O=[N+]([O-])c1ccc(OC2OC(CO)C(O)C(O)C2O)cc1", "note": "[α-NPG, 4-nitrophenyl-α-D-galactopyranoside]", "values": [{"measurement": "ligand binding by Trp→D2G FRET", "setting": "[2]", "value": "binds"}]}]}
